A word on the MIC: it is the lowest concentration found to suppress growth.

Converted amounts (≈) assume the structure as drawn.

Holding throughout (format): functional
Test [1] relates to Staphylococcus aureus. The test can be described thus: Antibacterial activity against methicillin resistant Staphylococcus aureus assessed as reduction in bacterial growth by CLSI protocol based method.
Test [2] relates to Staphylococcus aureus. Kind of test: Antibacterial activity against methicillin resistant Staphylococcus aureus 43300 assessed as reduction in bacterial growth by CLSI protocol based method.
The test system of a further test is Enterococcus faecalis. The test can be described thus: Antibacterial activity against Enterococcus faecalis assessed as reduction in bacterial growth by CLSI protocol based method.
Test [3] relates to Staphylococcus aureus. The test can be described thus: Antibacterial activity against Staphylococcus aureus ATCC 25923 assessed as reduction in bacterial growth by CLSI protocol based method.
The subject of test [4] is Staphylococcus aureus. Kind of test: Antibacterial activity against Staphylococcus aureus ATCC 29213 assessed as reduction in bacterial growth by CLSI protocol based method.
A further test has as its system Klebsiella pneumoniae. The test can be described thus: Antibacterial activity against Klebsiella pneumoniae assessed as reduction in bacterial growth by CLSI protocol based method.
The test system of test [5] is Pseudomonas aeruginosa. Kind of test: Antibacterial activity against Pseudomonas aeruginosa assessed as reduction in bacterial growth by CLSI protocol based method.
In test [6] the test system is Pseudomonas aeruginosa. Kind of test: Antibacterial activity against Pseudomonas aeruginosa ATCC 27853 assessed as reduction in bacterial growth by CLSI protocol based method.
Test [7] has as its system Pseudomonas aeruginosa. Kind of test: Antibacterial activity against Pseudomonas aeruginosa ATCC 10104 assessed as reduction in bacterial growth by CLSI protocol based method.
Test [8] relates to Pseudomonas aeruginosa. The test can be described thus: Antibacterial activity against Pseudomonas aeruginosa ATCC 90027 assessed as reduction in bacterial growth by CLSI protocol based method.
For another test, the system named is Acinetobacter baumannii. The test can be described thus: Antibacterial activity against Acinetobacter baumannii assessed as reduction in bacterial growth by CLSI protocol based method.
In a further test the test system is Escherichia coli. The test can be described thus: Antibacterial activity against Escherichia coli ATCC 25922 assessed as reduction in bacterial growth by CLSI protocol based method.

For `O=C(N/N=C/c1c(O)ccc2ccc(=O)oc12)c1ccccc1`, the MIC in the test on Staphylococcus aureus [1] turned out to be 256 µg/mL (≈ 830 µM); in the test on Staphylococcus aureus [2], 512 µg/mL (≈ 1660 µM); with Enterococcus faecalis it was 128 µg/mL (≈ 415 µM); in the test with Staphylococcus aureus [3], 2 µg/mL (≈ 6.49 µM); with Staphylococcus aureus [4] it was 512 µg/mL (≈ 1660 µM); with Klebsiella pneumoniae, 32 µg/mL (≈ 104 µM). For the same compound, the minimum inhibitory concentration (MIC) in the test with Pseudomonas aeruginosa [5] stood at 16 µg/mL (≈ 51.9 µM); in the test on Pseudomonas aeruginosa [6], 256 µg/mL (≈ 830 µM); in the test on Pseudomonas aeruginosa [7], 1 µg/mL (≈ 3.24 µM); in the test with Pseudomonas aeruginosa [8] it was 32 µg/mL (≈ 104 µM); in the test with Acinetobacter baumannii, 512 µg/mL (≈ 1660 µM); in the test with Escherichia coli it was 2 µg/mL (≈ 6.49 µM).
In the case of `Nc1ccc(C(=O)N/N=C/c2c(O)ccc3ccc(=O)oc23)cc1`, the minimal inhibitory concentration (MIC) in the test with Staphylococcus aureus [1] was determined as 512 µg/mL (≈ 1580 µM); in the test with Staphylococcus aureus [2] it was 512 µg/mL (≈ 1580 µM); with Enterococcus faecalis, 32 µg/mL (≈ 99 µM); in the test with Staphylococcus aureus [3], 512 µg/mL (≈ 1580 µM); in the test on Staphylococcus aureus [4], 512 µg/mL (≈ 1580 µM); in the test with Klebsiella pneumoniae it was 256 µg/mL (≈ 792 µM). The minimum inhibitory concentration (MIC) with Pseudomonas aeruginosa [5] is 512 µg/mL (≈ 1580 µM); in the test with Pseudomonas aeruginosa [6], 512 µg/mL (≈ 1580 µM); with Pseudomonas aeruginosa [7] it was 512 µg/mL (≈ 1580 µM); in the test on Acinetobacter baumannii, 256 µg/mL (≈ 792 µM); in the test on Escherichia coli, 512 µg/mL (≈ 1580 µM).
Take `O=c1ccc2ccc(O)c(/C=N/NS(=O)(=O)c3ccccc3)c2o1`: the minimum inhibitory concentration (MIC) in the test with Staphylococcus aureus [1] was found to be 512 µg/mL (≈ 1490 µM); in the test on Staphylococcus aureus [2], 512 µg/mL (≈ 1490 µM); in the test with Enterococcus faecalis, 512 µg/mL (≈ 1490 µM); in the test on Staphylococcus aureus [3], 512 µg/mL (≈ 1490 µM); with Staphylococcus aureus [4], 32 µg/mL (≈ 92.9 µM); with Klebsiella pneumoniae, 2 µg/mL (≈ 5.81 µM). For the same compound, the MIC in the test on Pseudomonas aeruginosa [5], with Pseudomonas aeruginosa [6], in the test on Pseudomonas aeruginosa [7], in the test with Pseudomonas aeruginosa [8], in the test on Acinetobacter baumannii and in the test with Escherichia coli was 512 µg/mL (≈ 1490 µM) throughout.
In the case of `Cc1ccc(S(=O)(=O)N/N=C/c2c(O)ccc3ccc(=O)oc23)cc1`, the MIC worked out at 512 µg/mL (≈ 1430 µM) in the test on Staphylococcus aureus [1]; 512 µg/mL (≈ 1430 µM) in the test on Staphylococcus aureus [2]; 512 µg/mL (≈ 1430 µM) in the test on Enterococcus faecalis; 512 µg/mL (≈ 1430 µM) with Staphylococcus aureus [3]; 256 µg/mL (≈ 714 µM) in the test with Staphylococcus aureus [4]; 512 µg/mL (≈ 1430 µM) with Klebsiella pneumoniae. In addition, the minimum inhibitory concentration (MIC) in the test with Pseudomonas aeruginosa [5] is 512 µg/mL (≈ 1430 µM); in the test with Pseudomonas aeruginosa [6], 512 µg/mL (≈ 1430 µM); with Pseudomonas aeruginosa [7], 512 µg/mL (≈ 1430 µM); in the test with Pseudomonas aeruginosa [8], 512 µg/mL (≈ 1430 µM); in the test with Acinetobacter baumannii it was 512 µg/mL (≈ 1430 µM); in the test with Escherichia coli it was 256 µg/mL (≈ 714 µM).
Consider `O=c1ccc2ccc(O)c(/C=N/NS(=O)(=O)Cc3ccccc3)c2o1`, for which the MIC was 256 µg/mL (≈ 714 µM) with Staphylococcus aureus [1]; 512 µg/mL (≈ 1430 µM) in the test with Staphylococcus aureus [2]; 128 µg/mL (≈ 357 µM) in the test with Enterococcus faecalis; 38 µg/mL (≈ 106 µM) with Staphylococcus aureus [3]; 16 µg/mL (≈ 44.6 µM) in the test on Staphylococcus aureus [4]; 512 µg/mL (≈ 1430 µM) with Klebsiella pneumoniae. The MIC was 512 µg/mL (≈ 1430 µM) in the test with Pseudomonas aeruginosa [5]; 512 µg/mL (≈ 1430 µM) in the test on Pseudomonas aeruginosa [6]; 512 µg/mL (≈ 1430 µM) with Pseudomonas aeruginosa [7]; 512 µg/mL (≈ 1430 µM) with Pseudomonas aeruginosa [8]; 512 µg/mL (≈ 1430 µM) with Acinetobacter baumannii; 256 µg/mL (≈ 714 µM) with Escherichia coli.
Turning to `O=c1ccc2ccc(O)c(/C=N/NS(=O)(=O)c3cccc4c3OCC4)c2o1`, the MIC in the test on Staphylococcus aureus [1], with Staphylococcus aureus [2], with Enterococcus faecalis, in the test on Staphylococcus aureus [3], in the test on Staphylococcus aureus [4] and in the test with Klebsiella pneumoniae was 512 µg/mL (≈ 1330 µM) each time. Besides, the MIC in the test with Pseudomonas aeruginosa [5], in the test with Pseudomonas aeruginosa [6], with Pseudomonas aeruginosa [7], in the test with Pseudomonas aeruginosa [8], in the test on Acinetobacter baumannii and with Escherichia coli was 512 µg/mL (≈ 1330 µM) in each case.
As to `O=c1ccc2ccc(O)c(/C=N/NS(=O)(=O)c3cccc4ccccc34)c2o1`, the MIC with Staphylococcus aureus [1] was found to be 256 µg/mL (≈ 649 µM); in the test with Staphylococcus aureus [2], 16 µg/mL (≈ 40.6 µM); in the test with Enterococcus faecalis, 512 µg/mL (≈ 1300 µM); with Staphylococcus aureus [3], 512 µg/mL (≈ 1300 µM); with Staphylococcus aureus [4] it was 512 µg/mL (≈ 1300 µM); in the test with Klebsiella pneumoniae it was 512 µg/mL (≈ 1300 µM). The minimal inhibitory concentration (MIC) in the test with Pseudomonas aeruginosa [5] was 64 µg/mL (≈ 162 µM); in the test on Pseudomonas aeruginosa [6], 256 µg/mL (≈ 649 µM); in the test with Pseudomonas aeruginosa [7], 128 µg/mL (≈ 325 µM); with Pseudomonas aeruginosa [8], 256 µg/mL (≈ 649 µM); in the test on Acinetobacter baumannii it was 256 µg/mL (≈ 649 µM); with Escherichia coli, 256 µg/mL (≈ 649 µM).

For the origin of these results see ChEMBL document CHEMBL5385944, “Hydrazyl hydroxycoumarins as new potential conquerors towards Pseudomonas aeruginosa” (Bioorg Med Chem Lett, 2024).
